Measurements: PubChem BioAssay AID1259407 (Chemical Carcinogenesis Research Information System (CCRIS), 2018)
Active and inactive are the calls of the source. How the calls were made is not given here.

Tested on: CCRIS mutagenicity, Ames/micronucleus/aberration tests
Experiment: CCRIS mutagenicity studies
[1] = Test System: AMES SALMONELLA TYPHIMURIUM, Strain/Indicator: TA98, Metabolic Activation: HAMSTER, LIVER, S-9, AROCLOR 1254 (10%), Method: PREINCUBATION
[2] = Test System: AMES SALMONELLA TYPHIMURIUM, Strain/Indicator: TA98, Metabolic Activation: NONE, Method: PREINCUBATION
[3] = Test System: AMES SALMONELLA TYPHIMURIUM, Strain/Indicator: TA98, Metabolic Activation: RAT, LIVER, S-9, AROCLOR 1254 (10%), Method: PREINCUBATION
[4] = Test System: AMES SALMONELLA TYPHIMURIUM, Strain/Indicator: TA100, Metabolic Activation: HAMSTER, LIVER, S-9, AROCLOR 1254 (10%), Method: PREINCUBATION
[5] = Test System: AMES SALMONELLA TYPHIMURIUM, Strain/Indicator: TA100, Metabolic Activation: NONE, Method: PREINCUBATION
[6] = Test System: AMES SALMONELLA TYPHIMURIUM, Strain/Indicator: TA100, Metabolic Activation: RAT, LIVER, S-9, AROCLOR 1254 (10%), Method: PREINCUBATION
[7] = Test System: AMES SALMONELLA TYPHIMURIUM, Strain/Indicator: TA1535, Metabolic Activation: HAMSTER, LIVER, S-9, AROCLOR 1254 (10%), Method: PREINCUBATION
[8] = Test System: AMES SALMONELLA TYPHIMURIUM, Strain/Indicator: TA1535, Metabolic Activation: NONE, Method: PREINCUBATION
[9] = Test System: AMES SALMONELLA TYPHIMURIUM, Strain/Indicator: TA1535, Metabolic Activation: RAT, LIVER, S-9, AROCLOR 1254 (10%), Method: PREINCUBATION
[10] = Test System: AMES SALMONELLA TYPHIMURIUM, Strain/Indicator: TA1537, Metabolic Activation: HAMSTER, LIVER, S-9, AROCLOR 1254 (10%), Method: PREINCUBATION
[11] = Test System: AMES SALMONELLA TYPHIMURIUM, Strain/Indicator: TA1537, Metabolic Activation: RAT, LIVER, S-9, AROCLOR 1254 (10%), Method: PREINCUBATION
[12] = Test System: AMES SALMONELLA TYPHIMURIUM, Strain/Indicator: TA1538, Metabolic Activation: RAT, LIVER, S-9, AROCLOR 1254, Method: STANDARD PLATE
[13] = Test System: AMES SALMONELLA TYPHIMURIUM, Strain/Indicator: TA100, Metabolic Activation: NONE, Method: STANDARD PLATE
[14] = Test System: AMES SALMONELLA TYPHIMURIUM, Strain/Indicator: TA98, Metabolic Activation: NONE, Method: STANDARD PLATE
[15] = Test System: AMES SALMONELLA TYPHIMURIUM, Strain/Indicator: TA1535, Metabolic Activation: NONE, Method: STANDARD PLATE
[16] = Test System: AMES SALMONELLA TYPHIMURIUM, Strain/Indicator: TA1537, Metabolic Activation: NONE, Method: STANDARD PLATE
[17] = Test System: AMES SALMONELLA TYPHIMURIUM, Strain/Indicator: TA98, Metabolic Activation: RAT, LIVER, S-9, AROCLOR 1254, Method: STANDARD PLATE
[18] = Test System: AMES SALMONELLA TYPHIMURIUM, Strain/Indicator: TA100, Metabolic Activation: RAT, LIVER, S-9, AROCLOR 1254, Method: STANDARD PLATE
[19] = Test System: AMES SALMONELLA TYPHIMURIUM, Strain/Indicator: TA1535, Metabolic Activation: RAT, LIVER, S-9, AROCLOR 1254, Method: STANDARD PLATE
[20] = Test System: AMES SALMONELLA TYPHIMURIUM, Strain/Indicator: TA1537, Metabolic Activation: RAT, LIVER, S-9, AROCLOR 1254, Method: STANDARD PLATE
[21] = Test System: MOUSE LYMPHOMA, Strain/Indicator: L5178Y (TK+/TK-), Metabolic Activation: NONE, Method: SUSPENSION/PLATE

Structure (SMILES): Cc1ccc(C)c(N)c1
- mutagenic call (Test System: AMES SALMONELLA TYPHIMURIUM, Strain/Indicator: TA97, Metabolic Activation: HAMSTER, LIVER, S-9, AROCLOR 1254 (10%), Method: PREINCUBATION): inactive; negative
- mutagenic call (Test System: AMES SALMONELLA TYPHIMURIUM, Strain/Indicator: TA97, Metabolic Activation: NONE, Method: PREINCUBATION): inactive; negative
- mutagenic call (Test System: AMES SALMONELLA TYPHIMURIUM, Strain/Indicator: TA97, Metabolic Activation: RAT, LIVER, S-9, AROCLOR 1254 (10%), Method: PREINCUBATION): inactive; negative
- mutagenic call [1]: active; positive
- mutagenic call [2]: inactive; negative
- mutagenic call [3]: active; positive
- mutagenic call [4]: active; positive
- mutagenic call [5]: inactive; negative
- mutagenic call [6]: inactive; negative
- mutagenic call [7]: inactive; negative
- mutagenic call [8]: inactive; negative
- mutagenic call [9]: inactive; negative
- mutagenic call [10]: active; positive
- mutagenic call [11]: inactive; negative

Structure (SMILES): CC(=O)C(N=Nc1ccc(-c2ccc(N=NC(C(C)=O)C(=O)Nc3ccccc3)c(Cl)c2)cc1Cl)C(=O)Nc1ccccc1 (centres undefined)
- mutagenic call [1]: inactive; negative
- mutagenic call [2]: inactive; negative
- mutagenic call [3]: inactive; negative
- mutagenic call [4]: inactive; negative
- mutagenic call [5]: inactive; negative
- mutagenic call [6]: inactive; negative
- mutagenic call [7]: inactive; negative
- mutagenic call [8]: inactive; negative
- mutagenic call [9]: inactive; negative
- mutagenic call [10]: inactive; negative
- mutagenic call (Test System: AMES SALMONELLA TYPHIMURIUM, Strain/Indicator: TA1537, Metabolic Activation: NONE, Method: PREINCUBATION): inactive; negative
- mutagenic call [11]: inactive; negative
- mutagenic call [12]: inactive; negative

Structure (SMILES): COc1ccccc1NC(=O)C(N=Nc1ccc(-c2ccc(N=NC(C(C)=O)C(=O)Nc3ccccc3OC)c(Cl)c2)cc1Cl)C(C)=O (centres undefined)
- mutagenic call (Test System: AMES SALMONELLA TYPHIMURIUM, Strain/Indicator: TA98, Metabolic Activation: HAMSTER, LIVER, S-9, Method: PREINCUBATION (PRIVAL METHOD)): inactive; negative

Structure (SMILES): CC(C)OC(=O)C=Cc1ccc([N+](=O)[O-])o1
- mutagenic call [2]: active; positive

Structure (SMILES): O=[N+]([O-])c1ccc(OCC2CO2)cc1 (centres undefined)
- mutagenic call [2]: inactive; negative
- mutagenic call [5]: active; positive
- mutagenic call [13]: active; positive
- mutagenic call (Test System: AMES SALMONELLA TYPHIMURIUM, Strain/Indicator: TA104, Metabolic Activation: NONE, Method: STANDARD PLATE): active; positive
- mutagenic call (Test System: AMES SALMONELLA TYPHIMURIUM, Strain/Indicator: TA4001, Metabolic Activation: NONE, Method: STANDARD PLATE): active; positive
- mutagenic call (Test System: AMES SALMONELLA TYPHIMURIUM, Strain/Indicator: TA4006, Metabolic Activation: NONE, Method: STANDARD PLATE): active; positive

Structure (SMILES): [Cd]
- mutagenic call [14]: inactive; negative
- mutagenic call (Test System: AMES SALMONELLA TYPHIMURIUM, Strain/Indicator: TA98, Metabolic Activation: RAT, LIVER, S-9, PHENOBARBITAL, Method: STANDARD PLATE): inactive; negative
- mutagenic call (Test System: AMES SALMONELLA TYPHIMURIUM, Strain/Indicator: TA102, Metabolic Activation: NONE, Method: STANDARD PLATE): active; positive
- mutagenic call (Test System: AMES SALMONELLA TYPHIMURIUM, Strain/Indicator: TA102, Metabolic Activation: RAT, LIVER, S-9, PHENOBARBITAL, Method: STANDARD PLATE): inactive; negative
- mutagenic call [15]: inactive; negative
- mutagenic call (Test System: AMES SALMONELLA TYPHIMURIUM, Strain/Indicator: TA1535, Metabolic Activation: RAT, LIVER, S-9, PHENOBARBITAL, Method: STANDARD PLATE): inactive; negative
- mutagenic call [16]: inactive; negative
- mutagenic call (Test System: AMES SALMONELLA TYPHIMURIUM, Strain/Indicator: TA1537, Metabolic Activation: RAT, LIVER, S-9, PHENOBARBITAL, Method: STANDARD PLATE): inactive; negative

Structure (SMILES): CC(=O)Nc1ccc(/C=C/c2ccccc2)cc1
- mutagenic call (Test System: CHINESE HAMSTER OVARY, Strain/Indicator: AS52/6-THIOGUANINE, Metabolic Activation: NONE): inactive; negative
- mutagenic call (Test System: CHINESE HAMSTER OVARY, Strain/Indicator: AS52/6-THIOGUANINE, Metabolic Activation: RAT LIVER S-9, 2-ACETYLAMINOFLUORENE): active; positive

Structure (SMILES): CCN(CC)c1cc(NC(C)=O)c(N=Nc2ccc([N+](=O)[O-])cc2)cc1OC
- mutagenic call [14]: active; positive
- mutagenic call [17]: active; positive
- mutagenic call [13]: inactive; negative
- mutagenic call [18]: active; positive
- mutagenic call [15]: inactive; negative
- mutagenic call [19]: active; positive
- mutagenic call [16]: inactive; negative
- mutagenic call [20]: active; positive
- mutagenic call [21]: inactive; negative
- mutagenic call (Test System: MOUSE LYMPHOMA, Strain/Indicator: L5178Y (TK+/TK-), Metabolic Activation: RAT, LIVER, S-9, AROCLOR 1254, Method: SUSPENSION/PLATE): inactive; negative
- mutagenic call (Test System: UDS RAT HEPATOCYTES, Strain/Indicator: THY INCORP, Metabolic Activation: NONE, Method: AUTORADIOGRAPHY): inactive; negative

Structure (SMILES): Cc1ccc(NCCO)cc1O
- mutagenic call [14]: inactive; negative
- mutagenic call [17]: inactive; negative
- mutagenic call [13]: inactive; negative
- mutagenic call [18]: inactive; negative
- mutagenic call [15]: inactive; negative
- mutagenic call [19]: inactive; negative
- mutagenic call [16]: inactive; negative
- mutagenic call [20]: inactive; negative
- mutagenic call (Test System: AMES SALMONELLA TYPHIMURIUM, Strain/Indicator: TA1538, Metabolic Activation: NONE, Method: STANDARD PLATE): inactive; negative
- mutagenic call [12]: inactive; negative
- mutagenic call [21]: inactive; negative
- mutagenic call (Test System: UDS HUMAN CELLS, Strain/Indicator: THY INCORP, Metabolic Activation: NONE, Method: LIQUID SCINTILLATION COUNTING): inactive; negative
- mutagenic call (Test System: UDS HUMAN CELLS, Strain/Indicator: THY INCORP, Metabolic Activation: RAT, LIVER, S-9, PHENOBARBITAL AND BETA-NAPHTHOFLAVONE, Method: LIQUID SCINTILLATION COUNTING): inactive; negative
